Assay results reported in US7781428B2 (Pfizer Inc., priority 2006, dated 2010).

These molecules were tested against T1, mineralocorticoid receptor (MR) (Homo sapiens, UniProt P08235) (assay: Cell-based Gal4 response element-controlled luciferase reporter assay (MR antagonism)). Settings: Huh7 human liver cells transfected with Gal4 DBD-MR LBD fusion and luciferase reporter; block of agonist-induced activation; overnight incubation.
T1 construct: expressed in transfected cells; host or cells: Huh7 (human liver cells)
T1 sequence (P08235 726-964 limits assumed): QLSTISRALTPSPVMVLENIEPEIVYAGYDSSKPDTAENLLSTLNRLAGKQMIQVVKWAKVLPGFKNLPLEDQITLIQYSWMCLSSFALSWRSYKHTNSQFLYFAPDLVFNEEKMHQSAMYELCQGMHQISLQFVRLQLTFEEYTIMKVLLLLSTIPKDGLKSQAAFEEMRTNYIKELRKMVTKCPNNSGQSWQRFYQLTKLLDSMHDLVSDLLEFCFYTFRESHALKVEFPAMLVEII
From the text: Method 1: Cell-based Gal4 Response Element-controlled Luciferase Reporter Assay
An in vitro assay can be used to evaluate mineralocorticoid receptor (MR) antagonism by a test compound. […] An agonist of the receptor can bind to and activate the receptor LBD, which activate the expression of the Gal4 response element containing luciferase reporter gene. Antagonists can compete for binding to the receptor LBDs and decrease the transcription activity of the reporter gene. Measurement of luciferase activity allows quantitative determinations of the reporter transcription in the presence of either agonists or agonists and antagonists in combination. β-galactosidase activity, which is unaffected by ligand, is used to normalize the transfection efficiency in the cell population.
Huh7 cells were plated in RPMI1640+10% fetal bovine serum (Invitrogen Corporation, San Diego, Calif.), at 10,000 cells per well in 96-well tissue culture dishes for approximately 24 hours. Cells were then transfected using FuGENE™ 6 Transfection Reagent according to manufacturers' instructions (Roche Molecular Biochemicals, Indianapolis, Ind.). Approximately 20 hours after transfection, media were removed. Cells were washed once with PBS and treated (n=6/group) with agonist for each receptor (all chemicals from Sigma, St. Louis, Mo.), and with compounds. Agonist concentrations represent 70-80% of full activation of each receptor.
Compounds were dissolved in DMSO at 10 mM and diluted to final concentrations in phenol red-free media that contained 10% charcoal- and dextran-stripped serum (Life Technologies, Gathersburg, Md.). Following overnight incubation (18-20 hours) with compounds, the medium was removed and replaced with 100 μL per well of PBS and 100 μL of Steady-Glo™ lysis buffer with luciferase substrate (Promega Corporation, Madison, Wis.). After a 30-minute incubation to completely lyse the cells, 100 μL of the lysate was transferred to a black, Dynatech Microfluor assay plates (Dynex Corporation, Chantilly, Va.) to measure luciferase activity. The plate was sealed with TopSeal self-adhesive film, dark-adapted for 5 minutes, then counted in a TopCount Plate Reader (Packard Instrument Company, Meriden, Conn.) in single photon counting mode. The remaining lysate was used for determination of β-galactosidase activity. In a clear 96-well assay plate, 100 μL of cell lysate was added to 100 μL β-galactosidase assay buffer per well. The assay buffer consisted of 60 mM Na2HPO4, 40 mM NaH2PO4, 10 mM KCl, 1 mM MgSO4, 50 mM β-mercaptoethanol, and 2.5 mg/mL ONPG, the latter two reagents were added just prior to assay (all chemicals from Sigma). The reaction was allowed to proceed until a distinct yellow color developed. Reactions were stopped by the addition of 100 μL per well 1 M Na2CO3 and plates were read at 420 nm in Victor-2 (Perkin Elmer Life Sciences, Boston, Mass.). Values (relative luciferase activity) for each sample were expressed as a ratio of luciferase activity to OD420β-galactosidase activity measured in arbitrary units for each well. […] “b” is the slope, “c” is the IC50 or EC50. “x” is the concentration of the compound and “y” the activity at that concentration.

`N#Cc1ccc(N2N=C3c4ccc(C(=O)O)cc4CC[C@H]3[C@H]2c2ccc(F)cc2)cc1Cl` [Example 4, (3S,3aS)-2-(3-chloro-4-cyanophenyl)-3-(4-fluorophenyl)-3,3a,4,5-tetrahydro-2H-benzo[g]indazole-7-carboxylic acid] and `N#Cc1ccc(N2N=C3c4cc(C(=O)O)ccc4CCC3C2c2ccc(F)cc2)cc1Cl` (racemic) [Example 5, 2-(3-chloro-4-cyanophenyl)-3-(4-fluorophenyl)-3,3a,4,5-tetrahydro-2H-benzo[g]indazole-8-carboxylic acid] are within 1.5-fold of each other in IC50: 3500 nM for the first, 3700 nM for the second.

Compared with `Cc1ncc(C2C3CCc4cc(C(=O)O)ccc4C3=NN2c2ccc(C#N)c(Cl)c2)s1` (racemic) [Example 49, 2-(3-chloro-4-cyanophenyl)-3-(2-methyl-1,3-thiazol-5-yl)-3,3a,4,5-tetrahydro-2H-benzo[g]indazole-7-carboxylic acid], `Cc1ncc(C2C3CCc4cc(C(=O)NCCS(C)(=O)=O)ccc4C3=NN2c2ccc(C#N)c(Cl)c2)s1` (stereo not drawn) [Example 118, 2-(3-chloro-4-cyanophenyl)-N-[2-(methylsulfonyl)ethyl]-3-(2-methyl-1,3-thiazol-5-yl)-3,3a,4,5-tetrahydro-2H-benzo[g]indazole-7-carboxamide] is 5.4-fold lower in IC50: 103 nM for the first, 19 nM for the second. The second is the more potent here.

Going from `CS(=O)(=O)CCNC(=O)c1ccc2c(c1)CCC1C2=NN(c2ccc(C#N)c(Cl)c2)C1c1ccc(F)cc1` (racemic) [Example 97, (±)-(3RS,3aRS)-2-(3-chloro-4-cyanophenyl)-3-(4-fluorophenyl)-N-(2-(methylsulfonyl)ethyl)-3,3a,4,5-tetrahydro-2H-benzo[g]indazole-7-carboxamide] to `C[S+]([O-])CCNC(=O)c1ccc2c(c1)CC[C@H]1C2=NN(c2ccc(C#N)c(Cl)c2)[C@H]1c1ccc(F)cc1` (mixture of isomers) [Example 101, (±)-(3RS,3aRS)-2-(3-chloro-4-cyanophenyl)-3-(4-fluorophenyl)-N-[2-(methylsulfinyl)ethyl]-3,3a,4,5-tetrahydro-2H-benzo[g]indazole-7-carboxamide], the IC50 rises from 12 nM to 23 nM (1.9-fold).

Going from `Cc1cc(N2N=C3c4ccc(C(=O)O)cc4OCC3C2c2ccc(F)cc2)ccc1C#N` (racemic) [Example 53, (±)-(3SR,3aSR)-2-(4-cyano-3-methylphenyl)-3-(4-fluorophenyl)-2,3,3a,4-tetrahydrochromeno[4,3-c]pyrazole-7-carboxylic acid] to `Cc1cc(N2N=C3c4ccc(C(=O)O)cc4CCC3C2c2ccc(F)cc2)ccc1C#N` (racemic) [Example 6, 2-(4-cyano-3-methylphenyl)-3-(4-fluorophenyl)-3,3a,4,5-tetrahydro-2H-benzo[g]indazole-7-carboxylic acid], the IC50 falls from 307 nM to 81 nM (3.8-fold).

First: CC(=O)Nc1ccc2c(c1)CCC1C2=NN(c2ccc(C#N)c(Cl)c2)C1C1CCCC1 (stereo not drawn) [Example 91, N-(-2-(3-chloro-4-cyanophenyl)-3-cyclopentyl-3,3a,4,5-tetrahydro-2H-benzo[g]indazol-7-yl)acetamide]
Second: CS(=O)(=O)CCNC(=O)c1ccc2c(c1)CC[C@H]1C2=NN(c2ccc(C#N)c(Cl)c2)[C@H]1C1CCCC1 [Example 114, (3S,3aR)-2-(3-chloro-4-cyanophenyl)-3-cyclopentyl-N-(2-(methylsulfonyl)ethyl)-3,3a,4,5-tetrahydro-2H-benzo[g]indazole-7-carboxamide]
The IC50 of the first is 5-fold higher: 5 nM for the first, 1 nM for the second.

Going from `N#Cc1ccc(N2N=C3c4ccc(C(=O)O)cc4CC[C@H]3[C@H]2c2ccoc2)cc1Cl` [Example 48, (3S,3aS)-2-(3-chloro-4-cyanophenyl)-3-(3-furyl)-3,3a,4,5-tetrahydro-2H-benzo[g]indazole-7-carboxylic acid] to `N#Cc1ccc(N2N=C3c4ccc(C(=O)O)cc4CC[C@@H]3[C@@H]2c2ccco2)cc1Cl` [Example 44, (3R,3aR)-2-(3-chloro-4-cyanophenyl)-3-(2-furyl)-3,3a,4,5-tetrahydro-2H-benzo[g]indazole-7-carboxylic acid], the IC50 falls from greater than 1000 nM to 16 nM.

Compared with `O=C(O)c1ccc2c(c1)CCC1C2=NN(c2ccc3c(c2)CCNC3=O)C1c1ccc(F)cc1` (racemic) [Example 13, 3-(4-fluorophenyl)-2-(1-oxo-1,2,3,4-tetrahydroisoquinolin-6-yl)-3,3a,4,5-tetrahydro-2H-benzo[g]indazole-7-carboxylic acid], `Cc1cc(N2N=C3c4ccc(O)cc4CCC3C2c2ccc(F)cc2)ccc1C#N` (stereo not drawn) [Example 80] is 11-fold lower in IC50: 535 nM for the first, 49 nM for the second. The second is the more potent here.

First: Cc1cc(N2N=C3c4ccc(C(=O)O)cc4CC[C@@H]3[C@@H]2C2CCCC2)ccc1C#N (single isomer, unassigned) [Example 22]
Second: COc1cc(N2N=C3c4ccc(C(=O)O)cc4CCC3C2C2CCCC2)ccc1C#N (racemic) [Example 25, 2-(4-cyano-3-methoxyphenyl)-3-cyclopentyl-3,3a,4,5-tetrahydro-2H-benzo[g]indazole-7-carboxylic acid]
The IC50 of the first is 1.8-fold lower: 4 nM for the first, 7 nM for the second.

Compared with `N#Cc1ccc(N2N=C3c4ccc(C(=O)NCCCCC(=O)O)cc4CC[C@@H]3[C@@H]2c2ccc(F)cc2)cc1Cl` (racemic) [Example 104, (±)-5-((3RS,3aRS)-2-(3-chloro-4-cyanophenyl)-3-(4-fluorophenyl)-3,3a,4,5-tetrahydro-2H-benzo[g]indazole-7-carboxamido)pentanoic acid], `N#Cc1ccc(N2N=C3c4ccc(O)cc4CCC3C2c2ccc(F)cc2)cc1` (racemic) [Example 90, (±)-4-((3RS,3aSR)-3-(4-fluorophenyl)-7-hydroxy-3,3a,4,5-tetrahydrobenzo[g]indazol-2-yl)benzonitrile] is 9-fold higher in IC50: 122 nM for the first, 1100 nM for the second. The first is the more potent here.

`N#Cc1ccc(N2N=C3c4ccc(CC(=O)O)cc4OCC3C2c2ccc(F)cc2)cc1` (racemic) [Example 79, (±)-(3RS,3aRS)-[2-(4-cyanophenyl)-3-(4-fluorophenyl)-2,3,3a,4-tetrahydrochromeno[4,3-c]pyrazol-7-yl]acetic acid] and `N#Cc1ccc(N2N=C3c4ccc(OS(=O)(=O)C(F)(F)F)cc4OCC3C2c2ccc(F)cc2)cc1Cl` (racemic) [Example 92, 2-(3-chloro-4-cyanophenyl)-3-(4-fluorophenyl)-2,3,3a,4-tetrahydrochromeno[4,3-c]pyrazol-7-yl trifluoromethanesulfonate] cannot be ordered by IC50: 6920 nM for the first, greater than 1000 nM for the second.

Going from `Cc1cc(N2N=C3c4ccc(C(=O)O)cc4CCC3C2C2=CCCC2)ccc1C#N` (racemic) [Example 51, 2-(4-cyano-3-methylphenyl)-3-cyclopentenyl-3,3a,4,5-tetrahydro-2H-benzo[g]indazole-7-carboxylic acid] to `COc1cc(N2N=C3c4ccc(C(=O)O)cc4CC[C@H]3[C@H]2C2CCCC2)ccc1C#N` [Example 27, (3R,3aS)-2-(4-cyano-3-methoxyphenyl)-3-cyclopentyl-3,3a,4,5-tetrahydro-2H-benzo[g]indazole-7-carboxylic acid], the IC50 rises from 7 nM to 305 nM (44-fold).

Compared with `N#Cc1ccc(N2N=C3c4ccc(C(=O)O)cc4OC[C@H]3[C@H]2C2CCCC2)cc1` [Example 72, (3R,3aS)-2-(4-cyanophenyl)-3-cyclopentyl-2,3,3a,4-tetrahydrochromeno[4,3-c]pyrazole-7-carboxylic acid], `COCc1cc(N2N=C3c4ccc(C(=O)O)cc4CCC3C2C2CCCC2)ccc1C#N` (racemic) [Example 28, 2-(4-cyano-3-(methoxymethyl)phenyl)-3-cyclopentyl-3,3a,4,5-tetrahydro-2H-benzo[g] indazole-7-carboxylic acid] is 54-fold lower in IC50: 8100 nM for the first, 150 nM for the second.
